{
  "source": "ChEMBL document CHEMBL6114992",
  "about": "“Design, synthesis, biological evaluation, and mechanism of action of new pyrazines as anticancer agents in vitro and in vivo” (Bioorg Med Chem, 2025)",
  "key": {"[1]": {"tested_on": "U-937", "assay": "Induction of apoptosis in human U-937 cells assessed as early apoptotic cells at 0.5 uM incubated for 48 hrs by Annexin V-FITC/PI staining based flow cytometry (reference value: 2.72 %)", "type": "functional"}, "[2]": {"assay": "Antiproliferative activity against human SK-OV-3/Taxol cells assessed as inhibition of cell growth incubated for 72 hrs by MTT assay", "type": "functional, cell-based", "conditions": "SK-OV-3, 72 h"}, "[3]": {"tested_on": "KG-1", "assay": "Antiproliferative activity against human KG-1 cells assessed as inhibition of cell growth incubated for 72 hrs by MTT assay", "type": "functional, cell-based", "conditions": "KG-1, 72 h"}, "[4]": {"tested_on": "U-937", "assay": "Induction of apoptosis in human U-937 cells assessed as necrotic cells at 2.5 uM incubated for 48 hrs by Annexin V-FITC/PI staining based flow cytometry (reference value: 2.03 %)", "type": "functional"}, "[5]": {"tested_on": "U-937", "assay": "Induction of apoptosis in human U-937 cells assessed as change in mitochondrial membrane potential at 2.5 uM incubated for 48 hrs by JC-1 staining based flow cytometry (reference value: 2.20 %)", "type": "functional"}, "[6]": {"tested_on": "U-937", "assay": "Downregulation of Bcl-XL expression in human U-937 cells incubated for 48 hrs by Western blot analysis", "type": "functional, cell-based", "conditions": "dose 1-5 µM"}, "[7]": {"tested_on": "U-937", "assay": "Induction of apoptosis in human U-937 cells assessed as change in mitochondrial membrane potential at 5 uM incubated for 48 hrs by JC-1 staining based flow cytometry (reference value: 2.20 %)", "type": "functional"}, "[8]": {"tested_on": "U-937", "assay": "Induction of apoptosis in human U-937 cells assessed as viable cells at 0.5 uM incubated for 48 hrs by Annexin V-FITC/PI staining based flow cytometry (reference value: 93.30 %)", "type": "functional", "conditions": "read-out: Activity"}, "[9]": {"tested_on": "U-937", "assay": "Induction of apoptosis in human U-937 cells assessed as late apoptotic cells at 0.5 uM incubated for 48 hrs by Annexin V-FITC/PI staining based flow cytometry (reference value: 1.96 %)", "type": "functional"}, "[10]": {"molecular_target": "Signal transducer and activator of transcription 3 (Homo sapiens) (UniProt P40763)", "sequence (P40763 whole entry)": "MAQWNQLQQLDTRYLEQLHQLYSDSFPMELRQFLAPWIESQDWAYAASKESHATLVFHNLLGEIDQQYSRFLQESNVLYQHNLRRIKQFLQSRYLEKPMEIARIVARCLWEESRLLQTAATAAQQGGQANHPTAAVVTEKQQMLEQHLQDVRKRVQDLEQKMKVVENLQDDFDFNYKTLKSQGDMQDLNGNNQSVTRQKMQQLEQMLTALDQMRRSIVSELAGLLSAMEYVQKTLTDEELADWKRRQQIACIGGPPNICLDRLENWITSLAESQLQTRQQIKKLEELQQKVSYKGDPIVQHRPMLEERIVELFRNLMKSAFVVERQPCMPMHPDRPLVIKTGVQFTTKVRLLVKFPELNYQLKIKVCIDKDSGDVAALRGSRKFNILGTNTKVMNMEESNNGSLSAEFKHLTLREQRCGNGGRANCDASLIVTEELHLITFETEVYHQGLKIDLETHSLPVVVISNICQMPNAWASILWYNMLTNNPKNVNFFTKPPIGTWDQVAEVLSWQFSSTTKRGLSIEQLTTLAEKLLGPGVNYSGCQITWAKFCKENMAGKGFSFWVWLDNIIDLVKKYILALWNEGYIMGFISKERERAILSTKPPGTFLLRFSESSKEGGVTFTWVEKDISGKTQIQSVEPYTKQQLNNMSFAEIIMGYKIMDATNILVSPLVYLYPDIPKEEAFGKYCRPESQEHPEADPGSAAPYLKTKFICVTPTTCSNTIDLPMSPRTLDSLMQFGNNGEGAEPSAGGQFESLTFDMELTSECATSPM", "assay": "Inhibition of STAT3 phosphorylation in human U-937 cells at 1 to 5 uM incubated for 48 hrs by Western blot analysis", "type": "cell-based", "conditions": "dose 1-5 µM"}, "[11]": {"tested_on": "U-937", "assay": "Induction of apoptosis in human U-937 cells assessed as necrotic cells at 0.5 uM incubated for 48 hrs by Annexin V-FITC/PI staining based flow cytometry (reference value: 2.03 %)", "type": "functional"}, "[12]": {"tested_on": "U-937", "assay": "Induction of apoptosis in human U-937 cells assessed as late apoptotic cells at 1 uM incubated for 48 hrs by Annexin V-FITC/PI staining based flow cytometry (reference value: 1.96 %)", "type": "functional"}, "[13]": {"tested_on": "U-937", "assay": "Induction of apoptosis in human U-937 cells assessed as viable cells at 1 uM incubated for 48 hrs by Annexin V-FITC/PI staining based flow cytometry (reference value: 93.30 %)", "type": "functional", "conditions": "read-out: Activity"}, "[14]": {"tested_on": "U-937", "assay": "Induction of apoptosis in human U-937 cells assessed as necrotic cells at 1 uM incubated for 48 hrs by Annexin V-FITC/PI staining based flow cytometry (reference value: 2.03 %)", "type": "functional"}, "[15]": {"tested_on": "U-937", "assay": "Downregulation of c-Myc expression in human U-937 cells incubated for 48 hrs by Western blot analysis", "type": "functional, cell-based", "conditions": "dose 1-5 µM"}, "[16]": {"tested_on": "U-937", "assay": "Induction of apoptosis in human U-937 cells assessed as viable cells at 2.5 uM incubated for 48 hrs by Annexin V-FITC/PI staining based flow cytometry (reference value: 93.30 %)", "type": "functional", "conditions": "read-out: Activity"}, "[17]": {"tested_on": "U-937", "assay": "Antiproliferative activity against human U-937 cells assessed as inhibition of cell growth incubated for 72 hrs by MTT assay", "type": "functional, cell-based", "conditions": "U-937, 72 h"}, "[18]": {"tested_on": "U-937", "assay": "Induction of apoptosis in human U-937 cells assessed as early apoptotic cells at 2.5 uM incubated for 48 hrs by Annexin V-FITC/PI staining based flow cytometry (reference value: 2.72 %)", "type": "functional"}, "[19]": {"tested_on": "U-937", "assay": "Downregulation of XIAP expression in human U-937 cells incubated for 48 hrs by Western blot analysis", "type": "functional, cell-based"}, "[20]": {"tested_on": "SK-OV-3", "assay": "Antiproliferative activity against human SK-OV-3 cells assessed as inhibition of cell growth incubated for 72 hrs by MTT assay", "type": "functional, cell-based", "conditions": "SK-OV-3, 72 h"}, "[21]": {"tested_on": "U-937", "assay": "Induction of apoptosis in human U-937 cells assessed as early apoptotic cells at 1 uM incubated for 48 hrs by Annexin V-FITC/PI staining based flow cytometry (reference value: 2.72 %)", "type": "functional"}, "[22]": {"tested_on": "U-937", "assay": "Induction of apoptosis in human U-937 cells assessed as change in mitochondrial membrane potential at 1 uM incubated for 48 hrs by JC-1 staining based flow cytometry (reference value: 2.20 %)", "type": "functional"}, "[23]": {"tested_on": "U-937", "assay": "Downregulation of YAP1 expression in human U-937 cells incubated for 48 hrs by Western blot analysis", "type": "functional, cell-based", "conditions": "dose 1-5 µM"}, "[24]": {"tested_on": "THP-1", "assay": "Antiproliferative activity against human THP-1 cells assessed as inhibition of cell growth incubated for 72 hrs by MTT assay", "type": "functional, cell-based", "conditions": "THP-1, 72 h"}, "[25]": {"tested_on": "U-937", "assay": "Downregulation of Bcl-2 expression in human U-937 cells incubated for 48 hrs by Western blot analysis", "type": "functional, cell-based"}, "[26]": {"tested_on": "U-937", "assay": "Upregulation of p21 expression in human U-937 cells incubated for 48 hrs by Western blot analysis", "type": "functional, cell-based"}, "[27]": {"tested_on": "U-937", "assay": "Induction of apoptosis in human U-937 cells assessed as late apoptotic cells at 2.5 uM incubated for 48 hrs by Annexin V-FITC/PI staining based flow cytometry (reference value: 1.96 %)", "type": "functional"}},
  "note": "Active and inactive are the calls of the source. The rule behind the calls is not given here.",
  "data": [
    {"smiles": "CCc1nccnc1C(=O)/C=C/c1ccc(C#N)cc1", "values": [
      {"measurement": "Activity", "setting": "[1]", "result": 8.17, "unit": "%"},
      {"measurement": "IC50", "setting": "[2]", "result": 5.39, "unit": "µM"},
      {"measurement": "IC50", "setting": "[3]", "result": 3.98, "unit": "µM"},
      {"measurement": "Activity", "setting": "[4]", "result": 3.82, "unit": "%"},
      {"measurement": "Activity", "setting": "[5]", "result": 6.16, "unit": "%"},
      {"measurement": "Activity", "setting": "[6]", "result": "Dose-dependent-effect"},
      {"measurement": "Activity", "setting": "[7]", "result": 14.12, "unit": "%"},
      {"measurement": "viability at 0.5 µM", "setting": "[8]", "result": 82.9, "unit": "%"},
      {"measurement": "Activity", "setting": "[9]", "result": 6.11, "unit": "%"},
      {"measurement": "inhibition", "setting": "[10]", "result": "Active"},
      {"measurement": "Activity", "setting": "[11]", "result": 2.84, "unit": "%"},
      {"measurement": "Activity", "setting": "[12]", "result": 6.74, "unit": "%"},
      {"measurement": "viability at 1 µM", "setting": "[13]", "result": 80.3, "unit": "%"},
      {"measurement": "Activity", "setting": "[14]", "result": 2.6, "unit": "%"},
      {"measurement": "Activity", "setting": "[15]", "result": "Dose-dependent-effect"},
      {"measurement": "viability at 2.5 µM", "setting": "[16]", "result": 74.2, "unit": "%"},
      {"measurement": "IC50", "setting": "[17]", "result": 0.18, "unit": "µM"},
      {"measurement": "Activity", "setting": "[18]", "result": 14.57, "unit": "%"},
      {"measurement": "Activity", "setting": "[19]", "result": "Dose-dependent-effect"},
      {"measurement": "IC50", "setting": "[20]", "result": 4.71, "unit": "µM"},
      {"measurement": "Activity", "setting": "[21]", "result": 10.41, "unit": "%"},
      {"measurement": "Activity", "setting": "[22]", "result": 3.69, "unit": "%"},
      {"measurement": "Activity", "setting": "[23]", "result": "Dose-dependent-effect"},
      {"measurement": "IC50", "setting": "[24]", "result": 0.64, "unit": "µM"},
      {"measurement": "Activity", "setting": "[25]", "result": "Dose-dependent-effect"},
      {"measurement": "Activity", "setting": "[26]", "result": "Dose-dependent-effect"},
      {"measurement": "Activity", "setting": "[27]", "result": 7.46, "unit": "%"}
    ]}
  ]
}
